# In paper PMC6804997 (PLoS ONE, 2019):
# Molecular target: HDAC4 (Homo sapiens, UniProt P56524)
# Assay: HDAC enzyme inhibition assay (Ac-peptide-AMC substrate)
# Assay type: biochemical
# Experimental: HDACs inhibition assay of F7 was performed utilizing 4-amino-7-methylcoumarin (AMC) labeled Ac-peptide (Ac-peptide-AMC) substrates, a service provided by Chempartner Company (Shanghai, China).
# This assay was performed was performed utilizing 4-amino-7-methylcoumarin (AMC) labeled Ac-peptide (Ac-peptide-AMC) substrates, a service provided by Chempartner Company (Shanghai, China).
# Sequence of HDAC4 (P56524 whole entry, species assumed): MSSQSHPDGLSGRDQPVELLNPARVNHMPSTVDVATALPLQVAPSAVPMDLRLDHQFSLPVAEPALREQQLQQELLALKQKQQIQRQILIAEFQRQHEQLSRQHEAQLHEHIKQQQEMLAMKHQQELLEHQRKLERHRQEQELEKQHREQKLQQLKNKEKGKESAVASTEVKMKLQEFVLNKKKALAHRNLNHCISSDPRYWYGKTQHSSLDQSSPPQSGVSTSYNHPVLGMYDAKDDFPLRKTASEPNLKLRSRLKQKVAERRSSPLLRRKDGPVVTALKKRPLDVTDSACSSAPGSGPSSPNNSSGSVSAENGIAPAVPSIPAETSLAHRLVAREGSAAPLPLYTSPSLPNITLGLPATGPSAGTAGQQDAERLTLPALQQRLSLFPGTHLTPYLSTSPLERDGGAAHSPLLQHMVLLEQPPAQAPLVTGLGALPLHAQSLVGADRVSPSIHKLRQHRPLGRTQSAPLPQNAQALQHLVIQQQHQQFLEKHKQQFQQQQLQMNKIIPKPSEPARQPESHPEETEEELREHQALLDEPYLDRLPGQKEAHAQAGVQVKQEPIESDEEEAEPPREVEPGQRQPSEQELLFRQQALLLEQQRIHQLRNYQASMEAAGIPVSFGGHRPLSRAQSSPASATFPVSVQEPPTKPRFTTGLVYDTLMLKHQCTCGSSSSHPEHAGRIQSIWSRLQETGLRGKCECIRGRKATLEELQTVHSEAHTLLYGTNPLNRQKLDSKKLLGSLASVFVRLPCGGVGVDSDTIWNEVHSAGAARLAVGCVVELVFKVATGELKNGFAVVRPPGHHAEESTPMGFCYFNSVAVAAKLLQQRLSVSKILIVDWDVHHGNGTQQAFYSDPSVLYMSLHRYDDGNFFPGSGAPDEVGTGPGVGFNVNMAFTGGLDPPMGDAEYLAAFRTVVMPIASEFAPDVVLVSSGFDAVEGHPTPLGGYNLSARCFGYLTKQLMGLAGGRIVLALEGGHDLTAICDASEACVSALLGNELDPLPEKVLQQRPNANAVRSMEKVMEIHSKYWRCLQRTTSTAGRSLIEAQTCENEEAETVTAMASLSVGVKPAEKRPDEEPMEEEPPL
smiles,measurement,value
"Cc1nc(N(C)c2ccc(Oc3ccc(C(=O)NO)cn3)cc2)c2ccccc2n1 [F7, N-hydroxy-6-(4-(methyl(2-methylquinazolin-4-yl)amino)phenoxy)nicotinamide]",IC50,> 10 µM
